Test results taken from patent US20040022866A1, “Pharmaceutical compositions with antibiotic activity” (ZAMBON GROUP S.P.A., priority 2002, published 2004).

Assay: DSC measurement of the heat of the degradation reaction of FT
Type: physicochemical
Conditions: scanning 10° C./min., mechanic mixture FT 0.02 moles + stabilizer 0.01 moles, 0.05% of water with respect to FT, reduced heat = higher stabilization
Procedure: The stabilization of FT from the selected stabilizers was evaluated experimentally with the DSC technology.
A mechanic mixture of FT (0.02 moles) with each of the stabilizers (0.01 moles) was admixed with 0.05% of water with respect to FT.
The DCS technology used for each mixture (scanning 10° C./min.) allow to measure the reaction heat which develops after the melting peak of FT, due to the degradation reaction.
A reduced heat development indicates a higher stabilization, the amount of FT being the same.

## C[C@@H]1O[C@@H]1P(=O)(O)O.NC(CO)(CO)CO [FT (single substance), Fosfomycin Tromethamol]
  reaction heat which develops after the melting peak of FT, due to the degradation reaction: 271.03 ± 16.73 (J/g)
